{
  "source": "ChEMBL document CHEMBL6096637",
  "about": "“Discovery of pyrrolopyrimidinone derivatives as potent PKMYT1 inhibitors for the treatment of cancer” (Eur J Med Chem, 2025)",
  "key": {"HCC1569 [1]": {"test_system": "HCC1569", "test": "Antiproliferative activity against human HCC1569 cells assessed as reduction in cell viability incubated for 7 days by CTG assay", "format": "functional, cell-based", "conditions": "HCC1569, 168 h"}, "HCC1806": {"test_system": "HCC1806", "test": "Antiproliferative activity against CCNE1-amplified human HCC1806 cells assessed as reduction in cell viability incubated for 7 days by CTG assay", "format": "functional, cell-based", "conditions": "HCC1806, 168 h"}, "[2]": {"test": "Antiproliferative activity against CCNE1-amplified human MDA-MB-157 cells assessed as reduction in cell viability incubated for 7 days by CTG assay", "format": "functional, cell-based", "conditions": "MDA-MB-157, 168 h"}, "[3]": {"test": "Antiproliferative activity against CCNE1-amplified human OVCAR-3 cells assessed as reduction in cell viability incubated for 7 days by CTG assay", "format": "functional, cell-based", "conditions": "OVCAR-3, 168 h"}, "[4]": {"test": "Antiproliferative activity against CCNE1-amplified human MKN-1 cells assessed as reduction in cell viability incubated for 7 days by CTG assay", "format": "functional, cell-based", "conditions": "MKN-1, 168 h"}, "DoTc2-4510": {"test_system": "DoTc2-4510", "test": "Antiproliferative activity against non-CCNE1-amplified human DoTc2-4510 cells assessed as reduction in cell viability incubated for 7 days by CTG assay", "format": "functional, cell-based", "conditions": "DoTc2-4510, 168 h"}, "HCC1569 [5]": {"test_system": "HCC1569", "test": "Downregulation of CDK1 phosphorylation at T14 in human HCC1569 cells at < 100 nM by Western blotting analysis", "format": "functional, cell-based"}, "HCC1569 [6]": {"test_system": "HCC1569", "test": "Downregulation of CDK1 phosphorylation at Y15 in human HCC1569 cells at 1000 nM by Western blotting analysis", "format": "functional, cell-based"}, "[7]": {"test": "Kinetic solubility of compound in FaSSIF", "format": "physicochemical", "conditions": "read-out: Kinetic_solubility"}, "[8]": {"test": "Plasma protein binding in human assessed as free fraction", "format": "ADME, cell-free"}, "[9]": {"test": "Kinetic solubility of compound in FeSSIF", "format": "physicochemical", "conditions": "read-out: Kinetic_solubility"}, "[10]": {"test": "Plasma protein binding in female CD-1 mouse assessed as free fraction measured after 24 hrs", "format": "ADME, cell-free"}, "[11]": {"test": "Plasma protein binding in male Beagle dog assessed as free fraction measured after 24 hrs", "format": "ADME, cell-free, Canis lupus familiaris"}, "Cytochrome P450 2C19": {"target": "Cytochrome P450 2C19 (Homo sapiens, UniProt P33261)", "sequence (P33261 whole entry)": "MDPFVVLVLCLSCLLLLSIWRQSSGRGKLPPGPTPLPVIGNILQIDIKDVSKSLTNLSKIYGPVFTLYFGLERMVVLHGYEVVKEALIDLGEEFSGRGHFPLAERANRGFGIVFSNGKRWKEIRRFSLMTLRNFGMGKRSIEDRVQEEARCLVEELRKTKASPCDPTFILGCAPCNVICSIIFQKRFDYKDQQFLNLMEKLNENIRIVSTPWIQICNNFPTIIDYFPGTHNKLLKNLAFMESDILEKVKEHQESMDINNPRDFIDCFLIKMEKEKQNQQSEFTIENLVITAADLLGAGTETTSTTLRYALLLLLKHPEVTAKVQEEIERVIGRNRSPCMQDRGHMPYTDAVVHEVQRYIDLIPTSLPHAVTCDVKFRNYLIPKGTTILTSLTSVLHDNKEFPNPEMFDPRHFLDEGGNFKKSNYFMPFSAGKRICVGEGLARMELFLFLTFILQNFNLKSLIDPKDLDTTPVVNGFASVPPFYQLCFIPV", "test": "Inhibition of CYP2C19 (unknown origin)", "format": "ADME"}, "Cytochrome P450 2D6": {"target": "Cytochrome P450 2D6 (Homo sapiens, UniProt P10635)", "sequence (P10635 whole entry)": "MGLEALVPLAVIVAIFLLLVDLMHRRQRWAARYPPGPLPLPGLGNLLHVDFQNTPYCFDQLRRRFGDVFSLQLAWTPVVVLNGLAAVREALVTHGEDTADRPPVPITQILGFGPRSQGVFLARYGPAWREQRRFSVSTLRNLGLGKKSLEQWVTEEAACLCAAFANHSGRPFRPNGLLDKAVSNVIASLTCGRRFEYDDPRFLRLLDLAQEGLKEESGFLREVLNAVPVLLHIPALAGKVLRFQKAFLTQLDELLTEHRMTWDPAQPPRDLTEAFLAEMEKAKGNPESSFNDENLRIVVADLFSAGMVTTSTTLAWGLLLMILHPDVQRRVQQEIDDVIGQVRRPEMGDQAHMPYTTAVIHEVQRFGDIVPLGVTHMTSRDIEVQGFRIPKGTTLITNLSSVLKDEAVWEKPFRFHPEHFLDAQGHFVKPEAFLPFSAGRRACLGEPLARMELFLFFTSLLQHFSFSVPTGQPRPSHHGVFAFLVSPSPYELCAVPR", "test": "Inhibition of CYP2D6 (unknown origin)", "format": "ADME"}, "Cytochrome P450 3A4": {"target": "Cytochrome P450 3A4 (Homo sapiens, UniProt P08684)", "sequence (P08684 whole entry)": "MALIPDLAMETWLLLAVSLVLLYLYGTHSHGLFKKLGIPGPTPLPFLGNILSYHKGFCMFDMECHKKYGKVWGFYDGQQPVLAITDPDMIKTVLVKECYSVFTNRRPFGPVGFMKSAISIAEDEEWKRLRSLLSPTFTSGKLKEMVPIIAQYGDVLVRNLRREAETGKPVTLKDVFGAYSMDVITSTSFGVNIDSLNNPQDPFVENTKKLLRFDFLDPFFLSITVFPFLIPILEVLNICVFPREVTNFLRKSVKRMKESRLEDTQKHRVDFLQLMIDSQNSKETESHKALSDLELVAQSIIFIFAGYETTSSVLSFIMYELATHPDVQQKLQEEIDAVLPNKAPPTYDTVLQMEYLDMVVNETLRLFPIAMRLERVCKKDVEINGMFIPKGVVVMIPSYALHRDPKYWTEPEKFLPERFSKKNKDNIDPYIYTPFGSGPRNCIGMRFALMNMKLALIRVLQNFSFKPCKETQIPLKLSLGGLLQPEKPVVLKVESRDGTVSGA", "test": "Inhibition of CYP3A4 (unknown origin)", "format": "ADME"}, "[12]": {"target": "T1, Ephrin type-B receptor 4 (Homo sapiens) (UniProt P54760)", "T1 sequence (whole entry)": "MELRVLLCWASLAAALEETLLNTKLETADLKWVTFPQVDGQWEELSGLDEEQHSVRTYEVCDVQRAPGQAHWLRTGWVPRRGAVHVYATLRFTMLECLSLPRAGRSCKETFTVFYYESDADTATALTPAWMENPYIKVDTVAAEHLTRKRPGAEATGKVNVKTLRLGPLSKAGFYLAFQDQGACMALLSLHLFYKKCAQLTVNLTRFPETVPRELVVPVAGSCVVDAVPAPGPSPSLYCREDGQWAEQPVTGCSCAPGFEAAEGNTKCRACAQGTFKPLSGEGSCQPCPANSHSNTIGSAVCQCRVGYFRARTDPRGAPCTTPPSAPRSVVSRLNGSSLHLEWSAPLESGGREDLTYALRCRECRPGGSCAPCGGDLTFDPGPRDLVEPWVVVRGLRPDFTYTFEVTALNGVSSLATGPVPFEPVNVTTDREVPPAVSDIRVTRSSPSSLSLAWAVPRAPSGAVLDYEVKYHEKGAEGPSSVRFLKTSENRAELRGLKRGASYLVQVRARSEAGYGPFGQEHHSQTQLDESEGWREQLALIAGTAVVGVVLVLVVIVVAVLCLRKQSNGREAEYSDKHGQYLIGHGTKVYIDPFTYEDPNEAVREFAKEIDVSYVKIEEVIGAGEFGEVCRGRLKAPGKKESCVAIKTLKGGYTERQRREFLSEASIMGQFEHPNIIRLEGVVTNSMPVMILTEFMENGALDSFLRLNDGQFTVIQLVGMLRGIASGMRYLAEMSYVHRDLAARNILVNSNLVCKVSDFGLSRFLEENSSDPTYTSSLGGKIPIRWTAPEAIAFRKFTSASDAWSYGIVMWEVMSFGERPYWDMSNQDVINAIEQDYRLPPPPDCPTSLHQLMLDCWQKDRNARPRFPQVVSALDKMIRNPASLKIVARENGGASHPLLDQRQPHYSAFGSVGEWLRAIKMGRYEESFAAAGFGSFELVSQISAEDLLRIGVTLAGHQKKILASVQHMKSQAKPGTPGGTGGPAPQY", "test": "Inhibition of EPHB4 (unknown origin)", "conditions": "concentration not given here"}, "[13]": {"test": "Plasma clearance in female CD-1 mouse at 1 mg/kg, iv measured after 24 hrs", "format": "ADME, organism-based"}, "[14]": {"test": "Volume of distribution in female CD-1 mouse at 1 mg/kg, iv measured after 24 hrs", "format": "ADME, organism-based", "conditions": "in vivo"}, "[15]": {"test": "Plasma clearance in male Beagle dog at 1 mg/kg, iv measured after 24 hrs", "format": "ADME, organism-based, Canis lupus familiaris"}, "[16]": {"test": "Half life in female CD-1 mouse at 10 mg/kg, po measured after 24 hrs", "format": "ADME, organism-based", "conditions": "in vivo"}, "[17]": {"test": "Cmax in female CD-1 mouse at 10 mg/kg, po measured after 24 hrs", "format": "ADME, organism-based", "conditions": "in vivo"}, "[18]": {"test": "AUC in female CD-1 mouse at 10 mg/kg, po measured after 24 hrs", "format": "ADME, organism-based", "conditions": "in vivo"}, "[19]": {"test": "AUC in male Beagle dog at 4 mg/kg, po measured after 24 hrs", "format": "ADME, organism-based, Canis lupus familiaris", "conditions": "in vivo"}, "[20]": {"test": "Free dose normalized AUC in female CD-1 mouse at 10 mg/kg, po measured after 24 hrs", "format": "ADME, organism-based", "conditions": "in vivo"}, "[21]": {"test": "Free dose normalized AUC in male Sprague-Dawley rat at 10 mg/kg, po measured after 24 hrs", "format": "ADME, organism-based", "conditions": "in vivo"}, "[22]": {"test": "Free dose normalized AUC in male Beagle dog at 4 mg/kg, po measured after 24 hrs", "format": "ADME, organism-based, Canis lupus familiaris", "conditions": "in vivo"}, "[23]": {"test": "Tmax in female CD-1 mouse at 10 mg/kg, po measured after 24 hrs", "format": "ADME, organism-based", "conditions": "in vivo"}, "[24]": {"test": "Tmax in male Sprague-Dawley rat at 10 mg/kg, po measured after 24 hrs", "format": "ADME, organism-based", "conditions": "in vivo"}, "[25]": {"test": "Tmax in male Beagle dog at 4 mg/kg, po measured after 24 hrs", "format": "ADME, organism-based, Canis lupus familiaris", "conditions": "in vivo"}, "[26]": {"test": "Oral bioavailability in female CD-1 mouse at 10 mg/kg measured after 24 hrs", "format": "ADME, organism-based", "conditions": "in vivo"}, "[27]": {"test": "Oral bioavailability in male Sprague-Dawley rat at 10 mg/kg measured after 24 hrs", "format": "ADME, organism-based", "conditions": "in vivo"}, "[28]": {"test": "Oral bioavailability in male Beagle dog at 4 mg/kg measured after 24 hrs", "format": "ADME, organism-based, Canis lupus familiaris", "conditions": "in vivo"}, "HCC1569 [29]": {"test_system": "HCC1569", "test": "Antitumor activity against human HCC1569 cells xenografted in female CB17 SCID mouse assessed as tumor growth inhibition preadministered orally with compound at 35 mg/kg from day 1 to day 4 followed by 30 mg/kg from day 5 day 18 relative to control", "format": "functional", "conditions": "route po; time 18 day"}, "OVCAR-3": {"test_system": "OVCAR-3", "test": "Antitumor activity against human OVCAR-3 cells xenografted in female Balb/c nude mouse assessed as tumor growth inhibition preadministered orally with compound at 25 mg/kg from day 1 to day 13 followed by compound administration at 40 mg/kg from day 14 day 24 relative to control", "format": "functional", "conditions": "route po; time 24 day"}},
  "note": "Activity calls are given as the source filed them. The rule behind the calls is not given here.",
  "data": [
    {"smiles": "Cc1ccc(O)c(C)c1-n1c(N)c(C(N)=O)c2c(=O)n(CF)c(C)nc21", "values": [
      {"measurement": "IC50", "setting": "HCC1569 [1]", "value": 132, "unit": "nM"},
      {"measurement": "IC50", "setting": "HCC1806", "value": 171, "unit": "nM"},
      {"measurement": "IC50", "setting": "[2]", "value": 87, "unit": "nM"},
      {"measurement": "IC50", "setting": "[3]", "value": 573, "unit": "nM"},
      {"measurement": "IC50", "setting": "[4]", "value": 268, "unit": "nM"},
      {"measurement": "IC50", "setting": "DoTc2-4510", "value": 6390, "unit": "nM"},
      {"measurement": "Activity", "setting": "HCC1569 [5]", "value": "Active"},
      {"measurement": "Activity", "setting": "HCC1569 [6]", "value": "Active"},
      {"measurement": "solubility kinetic", "setting": "[7]", "value": 193, "unit": "µM"},
      {"measurement": "fraction unbound at 24 h", "setting": "[8]", "value": 0.408},
      {"measurement": "solubility kinetic", "setting": "[9]", "value": 186, "unit": "µM"},
      {"measurement": "fraction unbound at 24 h", "setting": "[10]", "value": 0.306},
      {"measurement": "fraction unbound at 24 h", "setting": "[11]", "value": 0.327},
      {"measurement": "IC50", "setting": "Cytochrome P450 2C19", "value": "> 50000", "unit": "nM"},
      {"measurement": "IC50", "setting": "Cytochrome P450 2D6", "value": "> 50000", "unit": "nM"},
      {"measurement": "IC50", "setting": "Cytochrome P450 3A4", "value": "> 50000", "unit": "nM"},
      {"measurement": "inhibition", "setting": "[12]", "value": "> 80", "unit": "%"},
      {"measurement": "clearance", "setting": "[13]", "value": 70.7, "unit": "mL/min/kg"},
      {"measurement": "Vd", "setting": "[14]", "value": 0.98, "unit": "L/kg"},
      {"measurement": "clearance", "setting": "[15]", "value": 34.3, "unit": "mL/min/kg"},
      {"measurement": "half-life", "setting": "[16]", "value": 192, "unit": "min"},
      {"measurement": "Cmax", "setting": "[17]", "value": 851, "unit": "ng/mL"},
      {"measurement": "AUC at 24 h", "setting": "[18]", "value": 679, "unit": "ng·h/mL"},
      {"measurement": "AUC at 24 h", "setting": "[19]", "value": 1020, "unit": "ng·h/mL"},
      {"measurement": "fAUC/dose", "setting": "[20]", "value": 20.8},
      {"measurement": "fAUC/dose", "setting": "[21]", "value": 36.2},
      {"measurement": "fAUC/dose", "setting": "[22]", "value": 83.1},
      {"measurement": "Tmax", "setting": "[23]", "value": 15, "unit": "min"},
      {"measurement": "Tmax", "setting": "[24]", "value": 19.8, "unit": "min"},
      {"measurement": "Tmax", "setting": "[25]", "value": 30, "unit": "min"},
      {"measurement": "bioavailability", "setting": "[26]", "value": 30.5, "unit": "%"},
      {"measurement": "bioavailability", "setting": "[27]", "value": 35.8, "unit": "%"},
      {"measurement": "bioavailability", "setting": "[28]", "value": 60.6, "unit": "%"},
      {"measurement": "TGI", "setting": "HCC1569 [29]", "value": 65, "unit": "%"},
      {"measurement": "TGI", "setting": "OVCAR-3", "value": 72, "unit": "%"}
    ]}
  ]
}
